Reference: paper PMC6797481, “Identification of an allosteric binding site on the human glycine transporter, GlyT2, for bioactive lipid analgesics” (eLife, 2019)
Substitutions are numbered along the chain they refer to.

Columns and labels:
Assay type in all cases: cell-based
[1] = target: T1, GlyT2 F428A mutant (Homo sapiens, UniProt Q9Y345, F428A); test: Glycine transport currents, two electrode voltage clamp, oocytes expressing GlyT2 F428A; settings: for % Max. inhibition (% inhibition at the highest concentration of inhibitor used): footnote b
T1 construct: expressed in transfected cells; host or cells: Xenopus laevis oocytes (cRNA injection)
T1 sequence (Q9Y345 1-797 F428A): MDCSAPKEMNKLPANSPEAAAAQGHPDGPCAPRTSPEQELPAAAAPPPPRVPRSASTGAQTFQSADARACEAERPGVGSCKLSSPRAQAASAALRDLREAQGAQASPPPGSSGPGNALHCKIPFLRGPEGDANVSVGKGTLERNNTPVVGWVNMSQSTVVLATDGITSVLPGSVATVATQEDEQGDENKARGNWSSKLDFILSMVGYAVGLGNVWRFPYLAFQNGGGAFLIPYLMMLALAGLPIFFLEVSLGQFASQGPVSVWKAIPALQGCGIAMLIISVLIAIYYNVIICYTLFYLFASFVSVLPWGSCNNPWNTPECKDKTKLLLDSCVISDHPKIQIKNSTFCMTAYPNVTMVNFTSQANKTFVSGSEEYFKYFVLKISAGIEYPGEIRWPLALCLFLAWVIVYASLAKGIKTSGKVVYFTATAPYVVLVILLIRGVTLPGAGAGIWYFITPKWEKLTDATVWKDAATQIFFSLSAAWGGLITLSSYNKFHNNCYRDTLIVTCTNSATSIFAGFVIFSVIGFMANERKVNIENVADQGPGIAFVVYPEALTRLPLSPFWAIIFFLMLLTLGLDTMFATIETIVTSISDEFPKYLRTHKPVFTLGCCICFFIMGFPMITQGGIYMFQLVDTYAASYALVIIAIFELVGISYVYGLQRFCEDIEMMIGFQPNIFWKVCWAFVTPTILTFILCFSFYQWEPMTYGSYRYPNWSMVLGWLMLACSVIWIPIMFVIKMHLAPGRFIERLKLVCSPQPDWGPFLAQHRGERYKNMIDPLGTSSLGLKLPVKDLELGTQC
Description: (§1) Glycine was first applied to establish maximal transport current.
(§2) Compounds were tested for inhibition of glycine transport on Xenopus laevis oocytes expressing mutant GlyT1 and GlyT2 transporters. n values are in brackets, with measurements taken from at least 2 batches of oocytes.

[2] = target: T2, GlyT2 L569F mutant (Homo sapiens, UniProt Q9Y345, L569F); test: Glycine transport currents, two electrode voltage clamp, oocytes expressing GlyT2 L569F; settings: for % Max. inhibition: mean ± SEM
T2 construct: expressed in transfected cells; host or cells: Xenopus laevis oocytes (cRNA injection)
T2 sequence (Q9Y345 1-797 L569F): T1 sequence (Q9Y345 1-797 F428A) with A428F, L569F
Description: as §1, §2

[3] = target: T3, GlyT2 V432A mutant (Homo sapiens, UniProt Q9Y345, V432A); test: Glycine transport currents, two electrode voltage clamp, oocytes expressing GlyT2 V432A; settings: for % Max. inhibition: mean ± SEM
T3 construct: expressed in transfected cells; host or cells: Xenopus laevis oocytes (cRNA injection)
T3 sequence (Q9Y345 1-797 V432A): T1 sequence (Q9Y345 1-797 F428A) with A428F, V432A
Description: as §1, §2

[4] = GlyT2 V432A, greater than maximum concentration applied (footnote a)

Row | SMILES | EC50 ([1]; glycine transport, GlyT2 F428A (TM5)) | EC50 ([2]; glycine transport, GlyT2 L569F (TM8)) | EC50 ([3]; glycine transport, GlyT2 V432A (TM5)) | % Max. inhibition (% inhibition at the highest concentration of inhibitor used) ([1]; GlyT2 F428A) | IC50 ([1]; GlyT2 F428A, mean (95% CI)) | IC50 ([2]; GlyT2 L569F, mean (95% CI)) | % Max. inhibition ([2]; GlyT2 L569F) | IC50 [3, 4] | % Max. inhibition ([3]; GlyT2 V432A) | IC50 ([1]; GlyT2 F428A) | % Max. inhibition ([1]; GlyT2 F428A, mean ± SEM) | IC50 ([2]; GlyT2 L569F, greater than maximum concentration applied (footnote a)) | % Max. inhibition (% inhibition at the highest concentration of inhibitor used) ([3]; GlyT2 V432A, footnote b) | % Max. inhibition (% inhibition at the highest concentration of inhibitor used) ([2]; GlyT2 L569F, footnote b) | IC50 ([3]; GlyT2 V432A, mean (95% CI))
1 | NCC(=O)O [Glycine] | 6.2 ± 0.4 µM | 7 ± 0.6 µM | 114 ± 21.6 µM |  |  |  |  |  |  |  |  |  |  |  | 
2 | CCCCC/C=C\C/C=C\C/C=C\C/C=C\CCCC(=O)NCC(=O)O [N-arachidonyl Glycine, reference compound] |  |  |  | 64.7 ± 6.6^b (p=0.9998) % | 14.4 µM | 3.59 µM | 63.7 ± 19.0 (p=0.9990) % | > 10 µM | 4.2 ± 3.2 (p=0.0018) % |  |  |  |  |  | 
3 | CCCCCCCC/C=C\CCCCCCCC(=O)NCC(=O)O [N-oleoyl Glycine, reference compound] |  |  |  |  |  |  | 32.5 ± 3.6 (p=0.0005) % | > 10 µM |  | > 10 µM | 25.4 ± 4.9 (p=0.0001) % | > 10 µM | 1.9 ± 3.2^b (p=0.0001) % |  | 
4 | CCCCCCCC/C=C\CCCCCCCC(=O)O[C@H](CC(=O)[O-])C[N+](C)(C)C [oleoyl L-Carnitine, reference compound] |  |  |  | 22.7 ± 3.0^b (p=0.0001) % |  | 1.2 µM |  | > 3 µM | 6.0 ± 3.2 (p=0.0001) % | > 3 µM |  |  |  | 45.5 ± 7.0^b (p=0.0038) % | 
5 | CCCCCCCC/C=C\CCCCCCCC(=O)N[C@@H](CCCCN)C(=O)O [oleoyl l-Lysine] |  |  |  | 39.2 ± 2.3^b (p=0.0001) % |  | 0.301 µM | 76.8 ± 5.8 (p=0.4504) % |  | 71.9 ± 1.9 (p=0.0001) % | > 3 µM |  |  |  |  | 0.0684 µM
